The values below are quoted from earlier work in patent US20250205171A1, “TRANSDERMAL DELIVERY SYSTEMS FOR CERTAIN FACTOR Xa INHIBITORS AND RELATED METHODS FOR THEIR PREPARATION AND USE” (ARx, LLC, priority 2022, published 2025).

On to `COc1ccc(-n2nc(C(N)=O)c3c2C(=O)N(c2ccc(N4CCCCC4=O)cc2)CC3)cc1` [apixaban], for which the water solubility entry was “about 0.11 mg/mL”.
On to `COc1ccc(NC(=O)c2ccc(C(=N)N(C)C)cc2)c(C(=O)Nc2ccc(Cl)cn2)c1` [betrixaban], for which the water solubility was 2500 to 2700 µg/mL.
In the case of `COc1ccc(C(=O)Nc2cccc(O)c2NC(=O)c2ccc(N3CCCN(C)CC3)cc2)cc1` [darexaban], the water solubility entry is recorded as “about 0.0048 mg/mL”.
As to `CN1CCc2nc(C(=O)N[C@@H]3C[C@@H](C(=O)N(C)C)CC[C@@H]3NC(=O)C(=O)Nc3ccc(Cl)cn3)sc2C1` [edoxaban], the water solubility entry is “about 0.093 mg/mL”.
As for `CO[C@@H]1C[C@H](C(=O)Nc2ccc(-n3ccccc3=O)cc2F)N(C(=O)Nc2ccc(Cl)cc2)C1` [eribaxaban], the water solubility entry is on record as “about 0.00717 mg/mL”.
In the case of `CO[C@H]1O[C@H](COS(=O)(=O)O)[C@@H](O[C@@H]2O[C@@H](C(=O)O)[C@@H](O[C@H]3O[C@H](COS(=O)(=O)O)[C@@H](O[C@@H]4O[C@H](C(=O)O)[C@@H](O[C@H]5O[C@H](COS(=O)(=O)O)[C@@H](O)[C@H](O)[C@H]5NS(=O)(=O)O)[C@H](O)[C@H]4O)[C@H](OS(=O)(=O)O)[C@H]3NS(=O)(=O)O)[C@H](O)[C@H]2OS(=O)(=O)O)[C@H](O)[C@H]1NS(=O)(=O)O` [fondaparinux], the water solubility entry is “about 7.91 mg/mL”.
`O=C([C@H](O)CS(=O)(=O)c1ccc2cc(Cl)ccc2c1)N1CCC(N2CCCNC2=O)CC1` [letaxaban]: the water solubility result is “about 0.217 mg/mL”.
On to `COC(=O)[C@H](Cc1cccc(C(=N)N)c1)[C@@H](C)NC(=O)c1ccc(-c2cc[n+]([O-])cc2)cc1` [otamixaban], for which the water solubility entry is reported as “about 0.0088 mg/mL”.
`O=C(NC[C@H]1CN(c2ccc(N3CCOCC3=O)cc2)C(=O)O1)c1ccc(Cl)s1` [rivaroxaban]: the water solubility entry is given as “about 0.01 mg/mL”.
